# Legend:
# PEG28-ITIM [1] = test: SPR of SHP-1 injected over immobilised PEG28-ITIM: tethered/solution catalysis and reach (MPDPDE fit); format: biochemical, mouse; conditions: for L (reach parameter), SH2 variants / allosteric activation (in words), SH2 variants: SHP-1 variants over PEG28-ITIM; for L (reach parameter), SH2 variants: average fit Fig. 6B: WT n = 15, N-SH2 mutant n = 3, C-SH2 mutant n = 9
# Description: (§1) A construct expressing murine SHP-1 with an N-terminal 6× His tag was provided by M. H. Brown. Mutation of the SH2 domains was performed using a quick-change strategy. The mutations introduced were R30K and R33E for the N-terminal SH2 domain mutant and R136K for the C-terminal SH2 domain mutant previously shown to result in loss of binding ([6]). All peptides were ordered from PeptideSynthetics and were certified to be >95% pure. Peptides sequences were derived from the membrane-proximal ITIM sequence of mouse LAIR-1 receptor.
# (§2) Experiments were performed on a Biacore 3000 instrument (GE Healthcare Life Sciences). All experiments were performed at 10°C and with a buffer flow rate of 10 μl/min. The buffer used was Hepes-buffered saline (HBS-EP; GE Healthcare Life Sciences), which contained 10 mM Hepes (pH 7.4), 150 mM NaCl, 3 mM EDTA, and 0.005% Surfactant P20.
# (§3) A CM5 sensorchip was coupled with streptavidin to near saturation (typically between 4000 and 7000 RU) using the amine coupling kit (GE Healthcare Life Sciences) as described previously ([42]). After streptavidin was coupled, biotinylated peptides were injected to give the indicated concentrations in experimental flow cells, and excess biotin-binding sites were blocked with biotin in HBS-EP. The molar ratio of peptide to streptavidin was kept below 1:1 to ensure that peptide immobilization was random and not clustered on the tetravalent streptavidin molecules. Reference flow cells were treated with buffer and then blocked with biotin; pilot experiments using unphosphorylated control peptides in reference flow cells were indistinguishable from buffer-treated reference flow cells when injected with SHP-1. The chip surface was then conditioned with 5 × 5-min injections of HBS-EP. SHP-1 protein in HBS-EP with 1 mM dithiothreitol was then injected over reference and experimental flow cells in series for 5 min at the indicated concentrations. All SPR data were converted from the reference-subtracted data (in resonance units) to fraction bound by dividing the resonance units by the theoretical maximum resonance units expected if the experimental flow cell was saturated with bound SHP-1.
# To determine the concentration of peptide in the assays, we first needed a conversion factor between the resonance units and the mass of peptide at the chip surface. We determined this conversion factor by injecting four concentrations of SHP-1 over a control flow cell on a CM5 chip and plotting the mass of SHP-1 injected against the raw resonance unit change. We repeated this on seven flow cells across four sensor chips to get an average slope of 149 ± 15 RU per g/liter (±SEM). This constant, together with the molecular weight of the peptide, was used to convert between the resonance units of peptides immobilized and the molar concentration at the chip surface. For example, 48.5 RU of PEG28-ITIM (molecular weight, 3221) was immobilized to obtain [peptide] = 97.1 μM (Fig. 2A).
# From the MPDPDE model–simulated SPR traces, one would predict that the kcat*(solution) (fig. S4, G and H) and L (fig. S4F) are likely to be very sensitive to small systematic errors in the SPR trace at longer time scales. Nonspecific binding and baseline drift are two well-known sources of such systemic errors that can produce artifacts at long time scales (see fig. S6A for examples). To exclude data affected by these artifacts, we propose a simple quality control check that greatly improves the accuracy of estimating L, kcat*(tethered) , and kcat*(solution) . As a measure of the signal-to-noise ratio at long time points, we took the resonance units 20 s after the injection was completed (noise) and divided it by the resonance units 20 s before the injection finished (signal). […] Data that had evidence of significant artifact were excluded from the study based on this criterion (red data points in fig. S6B). […]
# PEG28-ITIM [2] = test: SPR of SHP-1 injected over immobilised PEG28-ITIM: binding constants (MPDPDE fit); design: species or system mouse; conditions: SHP-1 variants over PEG28-ITIM, compared with wild-type
# Description: as §1, §2, §3
# To determine the concentration of peptide in the assays, we first needed a conversion factor between the resonance units and the mass of peptide at the chip surface. We determined this conversion factor by injecting four concentrations of SHP-1 over a control flow cell on a CM5 chip and plotting the mass of SHP-1 injected against the raw resonance unit change. We repeated this on seven flow cells across four sensor chips to get an average slope of 149 ± 15 RU per g/liter (±SEM). […]
# SHP-1 [3] = molecular target: T1, SHP-1 (Mus musculus, UniProt P29351); test: SPR of SHP-1 injected over ITIM peptides: SHP-1 binding to the peptides; design: species or system murine; conditions: SHP-1 over peptides with shorter PEG linkers, compared with PEG28-ITIM; Fig. 5B
# T1 construct: 6xHis (N); made in house; host or cells: Escherichia coli BL21-CodonPlus (DE3)-RIPL
# Description: as §1, §2
# A CM5 sensorchip was coupled with streptavidin to near saturation (typically between 4000 and 7000 RU) using the amine coupling kit (GE Healthcare Life Sciences) as described previously ([42]). After streptavidin was coupled, biotinylated peptides were injected to give the indicated concentrations in experimental flow cells, and excess biotin-binding sites were blocked with biotin in HBS-EP. […]
# SHP-1 [4] = molecular target: T1, SHP-1; test: SPR of SHP-1 injected over ITIM peptides with different PEG linker lengths: reach and tethered catalysis (MPDPDE fit); format: biochemical, murine; conditions: for kcat*(tethered) versus tether length: SHP-1 over peptides with shorter PEG linkers, compared with PEG28-ITIM, Fig. 5B; for L (reach parameter) versus tether length: SHP-1 over peptides, average fit, PEG28 n = 15, PEG0 n = 2, 10°C, HBS-EP pH 7.4
# Description: as §1, §2, §3
# The five fitting parameters (p1, p2, p3, p4, and p5) are related to the five biophysical/biochemical constants as follows: p1 = kon [SHP-1], p2 = koff, p3=kcat*(tethered)× [peptide], p4=kcat*(tethered)/L^3 , and p5=kcat*(solution)× [SHP-1].
# The MPDPDE model was fit to the experimental data using lsqcurvefit in Matlab (Mathworks). Specifically, the value of nB from the MPDPDE model was fit to the experimental SPR data that were normalized to maximum binding. Each fit was repeated multiple times with different initial guesses for the five fitting parameters to make certain that the best fit was achieved (global convergence). […]
# T1 sequence (P29351 whole entry): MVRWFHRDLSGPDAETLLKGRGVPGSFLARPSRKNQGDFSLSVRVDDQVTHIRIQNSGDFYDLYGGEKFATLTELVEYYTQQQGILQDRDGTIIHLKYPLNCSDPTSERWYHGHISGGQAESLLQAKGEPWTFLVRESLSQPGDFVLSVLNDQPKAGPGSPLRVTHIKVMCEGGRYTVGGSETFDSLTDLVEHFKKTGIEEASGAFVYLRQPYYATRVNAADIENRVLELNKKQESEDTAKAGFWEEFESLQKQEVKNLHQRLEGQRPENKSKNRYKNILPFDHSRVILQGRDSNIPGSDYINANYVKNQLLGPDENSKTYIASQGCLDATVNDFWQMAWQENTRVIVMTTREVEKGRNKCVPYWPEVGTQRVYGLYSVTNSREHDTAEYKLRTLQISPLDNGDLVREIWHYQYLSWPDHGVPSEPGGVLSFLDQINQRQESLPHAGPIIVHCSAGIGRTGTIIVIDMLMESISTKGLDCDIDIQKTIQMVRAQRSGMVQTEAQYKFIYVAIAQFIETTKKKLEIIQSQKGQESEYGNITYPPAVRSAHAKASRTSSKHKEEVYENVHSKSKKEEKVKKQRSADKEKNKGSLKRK
Substance,"L (reach parameter), SH2 variants (PEG28-ITIM [1])","allosteric activation (in words), SH2 variants (PEG28-ITIM [1]; Fig. 6B)",kon versus tether length (SHP-1 [3]),kcat*(tethered) versus tether length (SHP-1 [4]),L (reach parameter) versus tether length (SHP-1 [4]),also measured
N-terminal mutant: SHP-1 with R30K and R33E mutations in the N-terminal SH2 domain,16.5 nm,still exhibited allosteric activation,–,–,–,"kcat*(tethered) over kcat*(solution), SH2 mutant (PEG28-ITIM [1]; N-SH2 mutant SHP-1 over PEG28-ITIM, n = 3): 10 fold; allosteric activation (in words), SH2 variants (PEG28-ITIM [1]; Fig. 6B, listed as N-terminal SH2 (N-SH2) mutant SHP-1): allosteric activation is observed in both cases; reach (in words), SH2 variants (PEG28-ITIM [1]; binding via C-terminal compared to N-terminal SH2 domain, PEG28-ITIM, Fig. 6B): reduced reach; binding to ITIM peptide (in words), SH2 variants (PEG28-ITIM [2]; listed as Mutation of the N-terminal SH2 domain): drastically reduced binding; binding to ITIM peptide (in words), SH2 variants (PEG28-ITIM [2]; listed as N-terminal SH2 (N-SH2) mutant SHP-1): weak binding"
Biotin-GDLQEVTY*IQLDHH [PEG0-ITIM],–,–,decrease,decrease,17 nm,–
Biotin-(PEG)3-DLQEVTY*IQLDHH [PEG3-ITIM],–,–,decrease,decrease,–,–
C-terminal mutant: SHP-1 with R136K mutation in the C-terminal SH2 domain,23.9 nm,allosteric activation is observed in both cases,–,–,–,"binding to ITIM peptide (in words), SH2 variants (PEG28-ITIM [2]): weak effect on binding"
Biotin-(PEG)28-DLQEVTY*IQLDHH [PEG28-ITIM],–,–,–,–,23 nm,–
